This note sets out measurements from PMC3961306, “Comparison of the Cancer Gene Targeting and Biochemical Selectivities of All Targeted Kinase Inhibitors Approved for Clinical Use” (PLoS ONE, 2014).

Test in all cases: Kinase profiling in a biochemical assay panel (mobility shift assays and ELISA), %-inhibition at 1 μM; selectivity entropy
Assay [1] concerns the target T1, panel of more than 300 wild-type and mutant kinases (313 kinase panel) (Homo sapiens, UniProt Q96BR1).
T1 sequence (Q96BR1 1-496): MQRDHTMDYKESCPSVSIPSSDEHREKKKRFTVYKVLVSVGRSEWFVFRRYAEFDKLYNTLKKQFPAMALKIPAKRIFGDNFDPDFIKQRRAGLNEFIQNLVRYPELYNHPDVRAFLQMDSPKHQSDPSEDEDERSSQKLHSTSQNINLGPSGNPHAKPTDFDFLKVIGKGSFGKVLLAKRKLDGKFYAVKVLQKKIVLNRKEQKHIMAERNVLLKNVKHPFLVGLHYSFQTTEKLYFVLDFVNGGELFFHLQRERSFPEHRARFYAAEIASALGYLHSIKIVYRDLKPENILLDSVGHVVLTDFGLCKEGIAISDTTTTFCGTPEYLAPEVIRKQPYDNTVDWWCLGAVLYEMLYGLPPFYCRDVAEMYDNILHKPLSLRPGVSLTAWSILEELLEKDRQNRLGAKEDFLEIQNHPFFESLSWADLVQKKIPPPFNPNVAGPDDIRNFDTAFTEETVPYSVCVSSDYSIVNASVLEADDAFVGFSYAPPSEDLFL
Particulars: kinase SGK3; 1 μM.

The target of assay [2] is panel of more than 300 wild-type and mutant kinases (313 kinase panel) (Homo sapiens, UniProt O14578). Particulars: kinase CRIK; compound at 1 μM.
Sequence of panel of more than 300 wild-type and mutant kinases (313 kinase panel) (Homo sapiens, UniProt O14578) (O14578 whole entry, change not shown): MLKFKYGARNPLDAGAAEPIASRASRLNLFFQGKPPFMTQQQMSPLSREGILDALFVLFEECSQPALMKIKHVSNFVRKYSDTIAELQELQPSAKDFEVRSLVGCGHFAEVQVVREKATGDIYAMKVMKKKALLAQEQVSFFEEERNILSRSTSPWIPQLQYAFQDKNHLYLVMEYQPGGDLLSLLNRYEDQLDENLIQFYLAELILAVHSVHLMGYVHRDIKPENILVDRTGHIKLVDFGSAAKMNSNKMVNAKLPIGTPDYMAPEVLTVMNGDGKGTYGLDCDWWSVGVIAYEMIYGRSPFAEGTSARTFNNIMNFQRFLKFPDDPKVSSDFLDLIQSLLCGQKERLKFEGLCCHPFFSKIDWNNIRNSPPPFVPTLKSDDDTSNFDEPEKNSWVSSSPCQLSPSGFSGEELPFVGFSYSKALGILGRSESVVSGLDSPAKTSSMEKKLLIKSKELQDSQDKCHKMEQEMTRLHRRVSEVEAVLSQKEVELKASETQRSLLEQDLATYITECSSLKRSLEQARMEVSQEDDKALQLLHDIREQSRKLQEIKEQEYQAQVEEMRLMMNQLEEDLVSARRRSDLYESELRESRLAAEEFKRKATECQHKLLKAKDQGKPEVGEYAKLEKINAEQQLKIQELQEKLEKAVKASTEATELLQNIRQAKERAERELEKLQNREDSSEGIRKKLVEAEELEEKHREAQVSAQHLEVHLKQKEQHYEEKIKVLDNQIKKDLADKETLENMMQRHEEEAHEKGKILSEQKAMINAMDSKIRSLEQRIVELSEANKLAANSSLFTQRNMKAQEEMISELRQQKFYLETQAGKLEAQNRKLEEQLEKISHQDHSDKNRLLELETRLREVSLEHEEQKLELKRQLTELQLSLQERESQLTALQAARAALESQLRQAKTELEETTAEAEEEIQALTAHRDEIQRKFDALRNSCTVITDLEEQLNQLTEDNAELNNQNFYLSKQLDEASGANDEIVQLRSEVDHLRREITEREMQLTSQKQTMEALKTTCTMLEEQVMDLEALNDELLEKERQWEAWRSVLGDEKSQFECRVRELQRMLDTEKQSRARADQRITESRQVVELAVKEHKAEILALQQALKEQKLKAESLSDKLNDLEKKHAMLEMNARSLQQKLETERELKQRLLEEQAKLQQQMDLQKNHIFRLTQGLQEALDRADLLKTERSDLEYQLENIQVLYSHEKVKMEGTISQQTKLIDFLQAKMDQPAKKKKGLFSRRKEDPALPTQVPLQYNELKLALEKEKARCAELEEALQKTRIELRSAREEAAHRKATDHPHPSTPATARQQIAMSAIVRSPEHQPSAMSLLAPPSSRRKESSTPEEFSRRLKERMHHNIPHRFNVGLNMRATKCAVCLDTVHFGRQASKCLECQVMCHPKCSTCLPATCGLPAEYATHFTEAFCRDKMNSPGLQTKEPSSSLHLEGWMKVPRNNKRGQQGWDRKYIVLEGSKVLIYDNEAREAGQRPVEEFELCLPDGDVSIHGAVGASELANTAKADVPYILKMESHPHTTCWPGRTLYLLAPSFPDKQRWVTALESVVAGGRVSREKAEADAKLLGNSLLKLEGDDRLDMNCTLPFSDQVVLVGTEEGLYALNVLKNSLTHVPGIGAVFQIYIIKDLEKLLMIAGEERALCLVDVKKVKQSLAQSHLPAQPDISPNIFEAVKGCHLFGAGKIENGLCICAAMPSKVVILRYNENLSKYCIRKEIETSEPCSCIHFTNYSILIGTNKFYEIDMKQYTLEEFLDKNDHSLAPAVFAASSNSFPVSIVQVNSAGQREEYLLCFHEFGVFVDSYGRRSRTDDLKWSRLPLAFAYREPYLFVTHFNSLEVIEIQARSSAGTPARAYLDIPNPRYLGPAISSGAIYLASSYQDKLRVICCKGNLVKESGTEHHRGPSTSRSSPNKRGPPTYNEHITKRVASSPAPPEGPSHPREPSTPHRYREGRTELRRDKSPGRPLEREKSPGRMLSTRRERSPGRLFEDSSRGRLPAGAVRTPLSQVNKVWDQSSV
Assay [3] deals with panel of more than 300 wild-type and mutant kinases (313 kinase panel) (Homo sapiens, UniProt Q9NYA1). Particulars: kinase SPHK1; 1 μM.
For assay [4], the target named is panel of more than 300 wild-type and mutant kinases (313 kinase panel) (Homo sapiens, UniProt Q9HCP0). Particulars: kinase CK1γ1; 1 μM compound.
The target in assay [5] is panel of more than 300 wild-type and mutant kinases (313 kinase panel) (Homo sapiens, UniProt P41279). Particulars: kinase COT; compound at 1 μM.
Sequence of panel of more than 300 wild-type and mutant kinases (313 kinase panel) (Homo sapiens, UniProt P41279) (P41279 whole entry, change not shown): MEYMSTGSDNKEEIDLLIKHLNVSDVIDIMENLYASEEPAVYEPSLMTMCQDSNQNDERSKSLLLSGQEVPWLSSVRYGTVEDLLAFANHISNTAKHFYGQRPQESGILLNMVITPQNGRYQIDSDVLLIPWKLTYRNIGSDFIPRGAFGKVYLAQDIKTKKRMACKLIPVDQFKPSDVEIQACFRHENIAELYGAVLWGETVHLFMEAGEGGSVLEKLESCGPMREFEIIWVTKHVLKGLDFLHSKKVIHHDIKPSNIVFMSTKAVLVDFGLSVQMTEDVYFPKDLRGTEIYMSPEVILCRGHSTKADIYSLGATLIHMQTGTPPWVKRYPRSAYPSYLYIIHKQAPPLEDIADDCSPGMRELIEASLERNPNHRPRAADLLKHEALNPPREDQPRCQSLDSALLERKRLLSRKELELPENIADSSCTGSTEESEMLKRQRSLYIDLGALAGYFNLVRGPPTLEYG
Assay [6] deals with panel of more than 300 wild-type and mutant kinases (313 kinase panel) (Homo sapiens, UniProt P22455). Particulars: kinase FGFR4; compound at 1 μM.
The target in assay [7] is T2, panel of more than 300 wild-type and mutant kinases (313 kinase panel) (Homo sapiens, UniProt P54753).
T2 sequence (P54753 34-998): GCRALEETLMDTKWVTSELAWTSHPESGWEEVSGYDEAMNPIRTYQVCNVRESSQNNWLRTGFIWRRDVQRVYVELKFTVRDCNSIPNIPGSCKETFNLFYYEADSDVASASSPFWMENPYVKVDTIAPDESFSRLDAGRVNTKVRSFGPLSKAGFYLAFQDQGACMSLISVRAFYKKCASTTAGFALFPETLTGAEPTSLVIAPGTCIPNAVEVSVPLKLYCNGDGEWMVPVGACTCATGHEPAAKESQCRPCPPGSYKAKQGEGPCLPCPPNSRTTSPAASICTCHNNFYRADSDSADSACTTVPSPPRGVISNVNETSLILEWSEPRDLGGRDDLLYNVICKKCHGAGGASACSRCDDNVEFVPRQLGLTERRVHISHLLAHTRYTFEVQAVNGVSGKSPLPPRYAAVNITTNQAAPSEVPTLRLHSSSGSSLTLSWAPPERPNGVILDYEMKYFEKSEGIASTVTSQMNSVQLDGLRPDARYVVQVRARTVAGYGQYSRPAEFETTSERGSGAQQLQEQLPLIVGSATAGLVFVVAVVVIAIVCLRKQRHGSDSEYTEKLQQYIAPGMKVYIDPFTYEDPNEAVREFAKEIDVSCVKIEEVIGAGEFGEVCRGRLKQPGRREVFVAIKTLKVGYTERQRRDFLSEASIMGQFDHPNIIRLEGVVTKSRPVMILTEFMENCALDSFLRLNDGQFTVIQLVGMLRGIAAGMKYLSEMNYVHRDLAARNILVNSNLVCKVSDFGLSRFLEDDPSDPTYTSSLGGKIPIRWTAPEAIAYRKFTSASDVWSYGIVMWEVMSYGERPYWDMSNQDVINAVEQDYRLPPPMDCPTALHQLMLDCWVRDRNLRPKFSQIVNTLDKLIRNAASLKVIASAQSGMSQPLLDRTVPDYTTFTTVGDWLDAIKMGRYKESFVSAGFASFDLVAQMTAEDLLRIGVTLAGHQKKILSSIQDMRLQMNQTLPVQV

On to `CO[C@H]1C[C@@H]2CC[C@@H](C)[C@@](O)(O2)C(=O)C(=O)N2CCCC[C@H]2C(=O)O[C@H]([C@H](C)C[C@@H]2CC[C@@H](OCCO)[C@H](OC)C2)CC(=O)[C@H](C)/C=C(\C)[C@@H](O)[C@@H](OC)C(=O)[C@H](C)C[C@H](C)/C=C/C=C/C=C/1C` [everolimus], for which the “%-inhibition of SGK3” value in assay [1] is -6.4%. The “%-inhibition of CRIK” value in assay [2] is given as -14%. Further, in assay [3], the “%-inhibition of SPHK1” value is listed as -16%. For the same compound, in assay [4], the “%-inhibition, CK1γ1” value is given as -2.44%. For the same compound, the “%-inhibition of COT” value in assay [5] is -3%. For the same compound, in assay [6], the “%-inhibition of FGFR4” value is listed as -7.59%. For the same compound, in assay [7] (kinase EPHB3, compound at 1 μM), the “%-inhibition of EPHB3” value is on record as -5%.
With `CC(=O)Nc1cccc(-n2c(=O)n(C3CC3)c(=O)c3c(Nc4ccc(I)cc4F)n(C)c(=O)c(C)c32)c1` [trametinib], the “%-inhibition of SGK3” value in assay [1] was 0.769%. In addition, the “%-inhibition of CRIK” value in assay [2] was -4.25%. Besides, in assay [3], the “%-inhibition of SPHK1” value is on record as -11%. Further, the “%-inhibition, CK1γ1” value in assay [4] is reported as 0.211%. In assay [5], the “%-inhibition of COT” value turned out to be 13%. Also, the “%-inhibition of FGFR4” value in assay [6] is -3%. Further, the “%-inhibition of EPHB3” value in assay [7] (1 µM) was -5.47%.
`CN(C)C/C=C/C(=O)Nc1cc2c(Nc3ccc(F)c(Cl)c3)ncnc2cc1O[C@H]1CCOC1` [afatinib]: the “%-inhibition of SPHK1” value in assay [3] is recorded as -2%. In assay [5], the “%-inhibition of COT” value is -7.4%.
As for `O=S(=O)(c1cccc2cnccc12)N1CCCNCC1` [fasudil], the “%-inhibition of SGK3” value in assay [1] stood at 7%. Also, in assay [2], the “%-inhibition of CRIK” value is on record as 7%. Further, in assay [3], the “%-inhibition of SPHK1” value is -15%. In assay [4], the “%-inhibition, CK1γ1” value was -3%. Moreover, in assay [5], the “%-inhibition of COT” value is recorded as 12%. The “%-inhibition of EPHB3” value in assay [7] (kinase EPHB3, compound at 1 μM) is listed as -4%.
For `N#CC[C@H](C1CCCC1)n1cc(-c2ncnc3[nH]ccc23)cn1` [ruxolitinib], the “%-inhibition of SGK3” value in assay [1] is -5%. Moreover, the “%-inhibition of CRIK” value in assay [2] is on record as 8%. For the same compound, the “%-inhibition of SPHK1” value in assay [3] was -15%. For the same compound, the “%-inhibition, CK1γ1” value in assay [4] is -4%. Besides, the “%-inhibition of COT” value in assay [5] was -3.66%. In addition, in assay [6], the “%-inhibition of FGFR4” value was 6%. In assay [7] (1 µM), the “%-inhibition of EPHB3” value was 2.73%.
In the case of `COc1cc2nccc(Oc3ccc(NC(=O)C4(C(=O)Nc5ccc(F)cc5)CC4)cc3)c2cc1OC` [cabozantinib], the “%-inhibition of SGK3” value in assay [1] was -1.1%. Also, the “%-inhibition of CRIK” value in assay [2] is recorded as -10%. The “%-inhibition of SPHK1” value in assay [3] is given as -12%. Also, the “%-inhibition, CK1γ1” value in assay [4] was found to be 4.74%. Moreover, in assay [5], the “%-inhibition of COT” value came to 18%. Besides, in assay [6], the “%-inhibition of FGFR4” value was determined as 8%. In assay [7] (kinase EPHB3, compound at 1 μM), the “%-inhibition of EPHB3” value is listed as 85%.
Consider `CC(C)(C)c1nc(-c2cccc(NS(=O)(=O)c3c(F)cccc3F)c2F)c(-c2ccnc(N)n2)s1` [dabrafenib], for which the “%-inhibition of SGK3” value in assay [1] is 0.0854%. The “%-inhibition of CRIK” value in assay [2] was -2.74%. In addition, the “%-inhibition of SPHK1” value in assay [3] is recorded as -18%. Further, the “%-inhibition of COT” value in assay [5] worked out at 9%. Further, the “%-inhibition of FGFR4” value in assay [6] was 19%. In addition, the “%-inhibition of EPHB3” value in assay [7] (kinase EPHB3, compound at 1 μM) was 3%.
For `Cc1ccc(Nc2nccc(N(C)c3ccc4c(C)n(C)nc4c3)n2)cc1S(N)(=O)=O` [pazopanib], in assay [1], the “%-inhibition of SGK3” value was -3.17%. Also, the “%-inhibition of CRIK” value in assay [2] was -2%. Also, the “%-inhibition of SPHK1” value in assay [3] came to 1.19%. Moreover, the “%-inhibition, CK1γ1” value in assay [4] is -3%. Also, in assay [5], the “%-inhibition of COT” value was -0.233%. In addition, in assay [7] (kinase EPHB3, compound at 1 μM), the “%-inhibition of EPHB3” value is -0.529%.
`Cc1nc(Nc2ncc(C(=O)Nc3c(C)cccc3Cl)s2)cc(N2CCN(CCO)CC2)n1` [dasatinib]: in assay [1], the “%-inhibition of SGK3” value turned out to be 1.18%. Further, the “%-inhibition of CRIK” value in assay [2] is given as 10%.
Consider `COc1cc(Nc2c(C#N)cnc3cc(OCCCN4CCN(C)CC4)c(OC)cc23)c(Cl)cc1Cl` [bosutinib], for which, in assay [1], the “%-inhibition of SGK3” value is on record as -7%. Also, the “%-inhibition of CRIK” value in assay [2] is 73%. Further, the “%-inhibition of SPHK1” value in assay [3] was -23%. The “%-inhibition, CK1γ1” value in assay [4] amounted to 14%. The “%-inhibition of COT” value in assay [5] came out at 7%. The “%-inhibition of FGFR4” value in assay [6] turned out to be 2.67%.
